Tested on: HeLa cells, A2780 cells
Experiment: growth profile of cells by Real Time Analyser (xCELLigence RTCA, Roche)
Type: cell-based, human
Details: HeLa and A2780 cells; same concentration of docetaxel; FIG. 2
From the text: FIG. 2A, 2B: HeLa and A2780 measured by Real Time Analyser (Roche). These figures show the growth profile of HeLa cells (A), and A2780 cells (B) after treating with docetaxel drug molecules (D), docetaxel-loaded nanoparticles (NP) and control cells (C). The injected volume contained the same concentration of docetaxel.
The xCELLigence RTCA HT Instrument from Roche Applied Science uses gold electrodes at the bottom surface of microplate wells as sensors to which an alternating current is applied. Cells that are grown as adherent monolayers on top of such electrodes influence the alternating current at the electrodes by changing the electrical resistance (impedance). The degree of this change is primarily determined by the number of cells, strength of the cell-cell interactions, interactions of the cells with the microelectrodes and by the overall morphology of the cells. The RTCA Software calculates the Cell Index (CI) as the relative change in measured impedance to represent cell status. The normalized cell index (NCI—plotted on y axis) is the relative cell impedance presented in the percentage of the value at the base-time. […] NCI increases by rise of cell-number or cell-size. For example NCI value in a culture treated with a proliferation inhibitory drug first can increase (because the cell-size grows) and after decreases (because the cell-number reduces)

SMILES: CC(=O)O[C@@]12CO[C@@H]1C[C@H](O)[C@@]1(C)C(=O)[C@H](O)C3=C(C)[C@@H](OC(=O)[C@H](O)[C@@H](NC(=O)OC(C)(C)C)c4ccccc4)C[C@@](O)([C@@H](OC(=O)c4ccccc4)[C@H]21)C3(C)C [docetaxel, 1,7β,10β-trihydroxy-9-oxo-5β,20-epoxytax-11-ene-2α,4,13α-triyl 4-acetate 2-benzoate 13-{(2R,3S)-3-[(tert-butoxycarbonyl)amino]-2-hydroxy-3-phenylpropanoate}]
- effect on growth profile (normalized cell index) of tumor cell lines: similar
